Test results reported in patent publication US11040981B2, “Pyrrolotriazine compounds and methods of inhibiting TAM kinases” (Syros Pharmaceuticals, Inc., priority 2017, dated 2021).

Key:
TYRO3 = molecular target: T1, TYRO3 (Homo sapiens, UniProt Q06418); assay: TR-FRET kinase activity assay, TYRO3; assay type: biochemical; conditions: ATP at Km, 60 minutes
T1 sequence (Q06418 41-890): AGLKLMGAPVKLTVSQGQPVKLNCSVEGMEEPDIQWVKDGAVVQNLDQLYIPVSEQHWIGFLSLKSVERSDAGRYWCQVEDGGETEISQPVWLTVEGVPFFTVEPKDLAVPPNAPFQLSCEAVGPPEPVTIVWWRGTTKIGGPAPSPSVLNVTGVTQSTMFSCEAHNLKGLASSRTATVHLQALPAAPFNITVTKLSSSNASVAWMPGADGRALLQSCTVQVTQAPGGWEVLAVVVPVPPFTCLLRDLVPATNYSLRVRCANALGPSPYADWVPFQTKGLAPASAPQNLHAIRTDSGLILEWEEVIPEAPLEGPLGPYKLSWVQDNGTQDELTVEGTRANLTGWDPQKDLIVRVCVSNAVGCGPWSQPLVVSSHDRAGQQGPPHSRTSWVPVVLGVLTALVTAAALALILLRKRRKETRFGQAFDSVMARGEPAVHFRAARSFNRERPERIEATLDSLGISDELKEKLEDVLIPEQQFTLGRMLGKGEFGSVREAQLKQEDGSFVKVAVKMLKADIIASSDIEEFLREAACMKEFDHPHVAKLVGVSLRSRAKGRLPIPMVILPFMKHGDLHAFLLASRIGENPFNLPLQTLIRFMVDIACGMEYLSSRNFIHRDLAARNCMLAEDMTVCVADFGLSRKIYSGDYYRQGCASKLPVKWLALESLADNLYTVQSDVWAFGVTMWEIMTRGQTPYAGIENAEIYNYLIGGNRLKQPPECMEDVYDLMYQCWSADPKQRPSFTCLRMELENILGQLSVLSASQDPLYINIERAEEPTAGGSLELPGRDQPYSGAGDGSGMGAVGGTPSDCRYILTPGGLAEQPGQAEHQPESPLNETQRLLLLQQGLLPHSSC
Description: (§1) IC50 values for compound inhibition of AXL, FLT3, MERTK and TYRO3 activity were determined by using a TR-FRET activity assay. A polypeptide substrate with a fluorescent label is phosphorylated on a tyrosine by each enzyme, where the now phosphorylated product is bound by a Europium-labeled antibody specific to that phosphorylation site. The proximity between the antibody and the substrate gives a signal known as TR-FRET. As the enzyme is inhibited by compound, less phosphorylated peptide product is made causing a decrease in overall signal.
(§2) Activity assays were performed in a 384-well, small volume, black microplates in an active enzyme volume of 10 μL and final developed volume of 20 μL. Final assay conditions are 50 mM HEPES pH 7.5, 10 mM MgCl2, 1 mM EGTA, 0.01% Brij 35 and 1 mM DTT all at RT. Enzyme, substrate labeled peptide and compound are mixed, and then the reaction is initiated with the addition of ATP at Km concentration for each enzyme. The reaction is allowed to run 60 minutes and then quenched with a 12.5 mM EDTA (ethylenediamine tetraacetic acid) solution. The plate is then developed with the addition of Europium labeled antibody for a final volume of 20 μL and is then incubated for 30 minutes in darkness. Plates are read in a Pherastar plate reader. Data is analyzed in GraphPad PRISM.
(§3) The results of these assays are shown in Table 1, below, wherein “No.” designates compound number (FIG. 1); “A” represents a value of ≤100 nM; “B” a value of >100 nM and ≤1 μM; “C” a value of >1 μM and ≤10 μM; “D” a value of >10 μM; “ND” is not determined. The ratio of Mer to FLT3 is calculated as follows: FLT3 IC50/Mer IC50. “+” represents a ratio of >2.0 and <10; “++” represents a ratio of between 10 and 100; and “+++” represents a ratio of >100.

MERTK = molecular target: T2, MERTK (Homo sapiens, UniProt Q12866); assay: TR-FRET kinase activity assay, MERTK; assay type: biochemical; conditions: for IC50: TR-FRET activity assay, ATP at Km, 60 minutes, read-out: Mer IC50; for FLT3/Mer ratio (FLT3 IC50/Mer IC50): ratio of Mer to FLT3: FLT3 IC50/Mer IC50
T2 sequence (Q12866 21-999): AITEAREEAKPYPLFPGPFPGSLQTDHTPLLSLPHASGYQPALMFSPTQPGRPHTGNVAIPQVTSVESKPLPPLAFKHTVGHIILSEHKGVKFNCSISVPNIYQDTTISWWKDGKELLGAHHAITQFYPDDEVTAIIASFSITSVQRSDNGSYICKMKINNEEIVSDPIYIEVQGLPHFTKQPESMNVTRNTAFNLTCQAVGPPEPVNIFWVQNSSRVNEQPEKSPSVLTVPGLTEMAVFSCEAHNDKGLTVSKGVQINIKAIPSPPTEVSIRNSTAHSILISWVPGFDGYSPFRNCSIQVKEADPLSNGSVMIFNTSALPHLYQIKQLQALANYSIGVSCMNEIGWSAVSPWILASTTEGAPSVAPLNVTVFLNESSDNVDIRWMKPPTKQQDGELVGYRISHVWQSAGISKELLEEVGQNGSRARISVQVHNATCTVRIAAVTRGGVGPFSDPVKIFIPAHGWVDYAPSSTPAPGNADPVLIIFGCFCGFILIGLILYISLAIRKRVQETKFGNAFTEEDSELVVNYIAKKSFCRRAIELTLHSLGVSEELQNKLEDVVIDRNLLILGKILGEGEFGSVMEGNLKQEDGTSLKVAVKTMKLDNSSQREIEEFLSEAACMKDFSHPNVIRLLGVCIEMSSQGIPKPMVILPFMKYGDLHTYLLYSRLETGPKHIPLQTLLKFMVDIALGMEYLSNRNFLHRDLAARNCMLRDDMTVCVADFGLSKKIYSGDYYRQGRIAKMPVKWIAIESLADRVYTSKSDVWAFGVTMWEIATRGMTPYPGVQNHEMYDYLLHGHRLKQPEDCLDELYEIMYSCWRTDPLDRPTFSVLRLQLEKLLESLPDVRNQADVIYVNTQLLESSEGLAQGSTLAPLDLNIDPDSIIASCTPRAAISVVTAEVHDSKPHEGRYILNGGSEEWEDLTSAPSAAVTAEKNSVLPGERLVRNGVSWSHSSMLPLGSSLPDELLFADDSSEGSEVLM
Description: as §1, §2, §3

| IC50 (TYRO3) | IC50 (MERTK) | FLT3/Mer ratio (FLT3 IC50/Mer IC50) (MERTK) | Compound |
| --- | --- | --- | --- |
| ≤ 100 nM | ≤ 100 nM | +++ (“+++” represents a ratio of >100) | COC[C@H](C)Nc1ncc2c(-c3ccc(C)nc3)cc([C@H]3CC[C@H](O)CC3)n2n1 [Compound 246] |
| ≤ 100 nM | ≤ 100 nM | +++ (“+++” represents a ratio of >100) | COC[C@H](C)Nc1ncc2c(-c3cnn(CC4(C#N)CC4)c3)cc([C@H]3CC[C@H](O)CC3)n2n1 [Compound 266] |
| ≤ 100 nM | ≤ 100 nM | +++ (“+++” represents a ratio of >100) | CNC(=O)Cn1cc(-c2cc([C@H]3CC[C@H](O)CC3)n3nc(N[C@@H](C)COC)ncc23)cn1 [Compound 241] |
| ≤ 100 nM | ≤ 100 nM | +++ (“+++” represents a ratio of >100) | COC[C@H](C)Nc1ncc2c(-c3cncc(S(C)(=O)=O)c3)cc([C@H]3CC[C@H](O)CC3)n2n1 [Compound 194] |
| ≤ 100 nM | ≤ 100 nM | +++ (“+++” represents a ratio of >100) | COC[C@H](C)Nc1ncc2c(-c3cnn(CCC#N)c3)cc([C@H]3CC[C@H](O)CC3)n2n1 [Compound 222] |
| ≤ 100 nM | ≤ 100 nM | +++ (“+++” represents a ratio of >100) | C[C@H](Nc1ncc2c(-c3ccc(CN4CCOCC4)cc3)cc([C@H]3CC[C@H](O)CC3)n2n1)[C@@H]1CCCO1 [Compound 205] |
| ≤ 100 nM | ≤ 100 nM | +++ (“+++” represents a ratio of >100) | COC[C@H](C)Nc1ncc2c(-c3cnn([C@H]4CCOC4)c3)cc([C@H]3CC[C@H](O)CC3)n2n1 [Compound 243] |
| ≤ 100 nM | ≤ 100 nM | +++ (“+++” represents a ratio of >100) | COC[C@H](C)Nc1ncc2c(-c3ccc(N4CCOCC4)nc3)cc([C@H]3CC[C@H](O)CC3)n2n1 [Compound 254] |
| ≤ 100 nM | ≤ 100 nM | +++ (“+++” represents a ratio of >100) | COC[C@H](C)Nc1ncc2c(-c3cn(C[Si](C)(C)C)nn3)cc([C@H]3CC[C@H](O)CC3)n2n1 [Compound 248] |
| ≤ 100 nM | ≤ 100 nM | +++ (“+++” represents a ratio of >100) | COC[C@H](C)Nc1ncc2c(-c3cncc(C(=O)N4CCCC4)c3)cc([C@H]3CC[C@H](O)CC3)n2n1 [Compound 232] |
| ≤ 100 nM | ≤ 100 nM | +++ (“+++” represents a ratio of >100) | COC[C@H](C)Nc1ncc2c(-c3cn(C)nn3)cc([C@H]3CC[C@H](O)CC3)n2n1 [Compound 250, (trans)-4-(2-(((S)-1-methoxypropan-2-yl)amino)-5-(1-methyl-1H-1,2,3-triazol-4-yl)pyrrolo[2,1-f][1,2,4]triazin-7-yl)cyclohexanol] |
| ≤ 100 nM | ≤ 100 nM | +++ (“+++” represents a ratio of >100) | COCC(C)Nc1ncc2c(-c3cccc(CN4CCC(F)C4)c3)cc(C3CCC(O)CC3)n2n1 (stereo not drawn) [Compound 225] |
| ≤ 100 nM | ≤ 100 nM | +++ (“+++” represents a ratio of >100) | CNC(=O)c1cncc(-c2cc([C@H]3CC[C@H](O)CC3)n3nc(N[C@@H](C)COC)ncc23)c1 [Compound 245] |
| ≤ 100 nM | ≤ 100 nM | +++ (“+++” represents a ratio of >100) | COC[C@H](C)Nc1ncc2c(-c3cnc(C)o3)cc([C@H]3CC[C@H](O)CC3)n2n1 [Compound 261] |
| ≤ 100 nM | ≤ 100 nM | +++ (“+++” represents a ratio of >100) | COCC(C)Nc1ncc2c(-c3cnn(C4COC4)c3)cc(C3CCC(O)CC3)n2n1 (stereo not drawn) [Compound 221] |
| ≤ 100 nM | ≤ 100 nM | +++ (“+++” represents a ratio of >100) | COC[C@H](C)Nc1ncc2c(-c3ccc4c(c3)NC(=O)C4)cc([C@H]3CC[C@H](O)CC3)n2n1 [Compound 249] |
| ≤ 100 nM | ≤ 100 nM | +++ (“+++” represents a ratio of >100) | COC[C@H](C)Nc1ncc2c(-c3ccc4c(c3)CNC4=O)cc([C@H]3CC[C@H](O)CC3)n2n1 [Compound 252] |
| 100 to 1000 nM | ≤ 100 nM | +++ (“+++” represents a ratio of >100) | COC[C@H](C)Nc1ncc2c(-c3cc(C)ccn3)cc([C@H]3CC[C@H](O)CC3)n2n1 [Compound 257] |
| ≤ 100 nM | ≤ 100 nM | +++ (“+++” represents a ratio of >100) | COC[C@H](C)Nc1ncc2c(-c3cnn(Cc4cccnc4)c3)cc([C@H]3CC[C@H](O)CC3)n2n1 [Compound 220] |
| ≤ 100 nM | ≤ 100 nM | +++ (“+++” represents a ratio of >100) | CC(C)OC[C@H](C)Nc1ncc2c(-c3ccc(CN4CCOCC4)cc3)cc([C@H]3CC[C@H](O)CC3)n2n1 [Compound 214] |
| ≤ 100 nM | ≤ 100 nM | +++ (“+++” represents a ratio of >100) | COC[C@H](C)Nc1ncc2c(-c3cnn(C(F)F)c3)cc([C@H]3CC[C@H](O)CC3)n2n1 [Compound 207] |

| Compound | IC50 (TYRO3) | IC50 (MERTK) | FLT3/Mer ratio (FLT3 IC50/Mer IC50) (MERTK) |
| --- | --- | --- | --- |
| CCCCC[C@H](C)Nc1ncc2c([C@H]3CC[C@@H](C(=O)N4CCOCC4)CC3)cc([C@H]3CC[C@H](O)CC3)n2n1 [Compound 109, ((cis)-4-(2-((S)-heptan-2-ylamino)-7-((trans)-4-hydroxycyclohexyl)pyrrolo[2,1-f][1,2,4]triazin-5-yl)cyclohexyl)(morpholino)methanone] | ≤ 100 nM | ≤ 100 nM | ++ (“++” represents a ratio of between 10 and 100) |
| CCCCC[C@H](C)Nc1ncc2c(-c3ccc(CN4CCN(C)CC4)cc3)cc([C@H]3CC[C@@H](O)CC3)n2n1 [Compound 105] | ≤ 100 nM | ≤ 100 nM | + (“+” represents a ratio of >2.0 and <10) |
